Reference: US20090075937A1, “LHRH ANTAGONISTS FOR THE TREATMENT OF LOWER URINARY TRACT SYMPTOMS” (AETERNA ZENTARIS GmbH, priority 2007, published 2009)
Non-standard residues stand in square brackets, D forms with d. Residues, ends and D or L forms follow the SMILES beside them. dPhe(4-Cl) = N[C@H](Cc1ccc(Cl)cc1)C(=O)O; d2Nal = N[C@H](Cc1ccc2ccccc2c1)C(=O)O; dCit = NC(=O)NCCC[C@@H](N)C(=O)O; d3Pal = N[C@H](Cc1cccnc1)C(=O)O

How the values were obtained:
study subjects [1] = test: Frequency of emptying: how often the study subjects had to urinate a second time within a 2 hour test period; assay type: in vivo, human
Text: (§1) The results shown are percentage variations from baseline at the beginning of the study (week 0).
The results shown are mean values, how often the study subjects had to urinate a second time.

[2] = test system: testosterone blood levels; test: Median testosterone blood levels / chemical (hormonal) castration; conditions: for Testosterone [ng/mL] (median): blood level
Description: Preferably, chemical (hormonal) castration is a testosterone castration and refers to a testosterone blood level of equal or below 1.2 ng/mL, preferably 0.5 ng/mL.
Study subjects were treated with Cetrorelix pamoate with the following doses according to the following administration schemes: • 60 mg Cetrorelix pamaote administered at week 0 and 30 mg Cetrorelix pamaote administered at week 2 (treatment period) followed by up to 5 months of no treatment (treatment-free period) • 60 mg Cetrorelix pamaote administered at week 0 and 60 mg Cetrorelix pamaote administered at week 2 (treatment period) followed by up to 5 months of no treatment (treatment-free period)
Study subjects were treated with Cetrorelix acetate with the following doses according to the following administration schemes: • 5 mg Cetrorelix acetate administered at week 0, 1, 2 and 3 (total monthly dose of 20 mg) (treatment period) followed by up to 4 months of no treatment (treatment-free period) • 10 mg Cetrorelix acetate administered at week 0 and 10 mg Cetrorelix acetate administered at week 2 (treatment period) followed by up to 4 months of no treatment (treatment-free period) • 10 mg Cetrorelix acetate administered at week 0, 1, 2 and 3 (total monthly dose of 40 mg) (treatment period) followed by up to 4 months of no treatment (treatment-free period)
Study subjects were treated with Ozarelix with the following doses according to the following administration schemes: • 15 mg Ozarelix administered at week 0 and 15 mg Ozarelix administered at week 2 (treatment period) followed by up to 4 months of no treatment (treatment-free period)

study subjects [3] = test: IPSS irritative subscore (sum of nocturia, frequency of emptying and urgency to urinate); assay type: in vivo, human; conditions: for IPSS irritative subscore (nocturia, frequency of emptying, urgency to urinate): percentage variation from baseline
Text: as §1

study subjects [4] = test: Nocturia: how often the study subjects got up during the night in order to urinate; assay type: in vivo, human
Text: as §1
The results shown are mean values, how often the study subjects had to get up.

[5] = 2 × 10: 10 mg at week 0 and week 2, Week 0
[6] = 2 × 10: 10 mg at week 0 and week 2, Week 4
[7] = 2 × 10: 10 mg at week 0 and week 2, Week 8
[8] = 2 × 10: 10 mg at week 0 and week 2, Week 12
[9] = 2 × 10: 10 mg at week 0 and week 2, Week 16
[10] = 2 × 10: 10 mg at week 0 and week 2, Week 20
[11] = 4 × 5: 5 mg at week 0, 1, 2 and 3, Week 0
[12] = 4 × 5: 5 mg at week 0, 1, 2 and 3, Week 4
[13] = 4 × 5: 5 mg at week 0, 1, 2 and 3, Week 8
[14] = 4 × 5: 5 mg at week 0, 1, 2 and 3, Week 12
[15] = 4 × 5: 5 mg at week 0, 1, 2 and 3, Week 16
[16] = 4 × 5: 5 mg at week 0, 1, 2 and 3, Week 20
[17] = 4 × 10: 10 mg at week 0, 1, 2 and 3, Week 0
[18] = 4 × 10: 10 mg at week 0, 1, 2 and 3, Week 4
[19] = 4 × 10: 10 mg at week 0, 1, 2 and 3, Week 8
[20] = 4 × 10: 10 mg at week 0, 1, 2 and 3, Week 12
[21] = 4 × 10: 10 mg at week 0, 1, 2 and 3, Week 16
[22] = 4 × 10: 10 mg at week 0, 1, 2 and 3, Week 20
[23] = 5+5+5+5 mg, 10+10 mg and 10+10+10+10 mg schemes, largest difference, n-times mean

With `CC(=O)N[C@H](Cc1ccc2ccccc2c1)C(=O)N[C@H](Cc1ccc(Cl)cc1)C(=O)N[C@H](Cc1cccnc1)C(=O)N[C@@H](CO)C(=O)N[C@@H](Cc1ccc(O)cc1)C(=O)N[C@H](CCCNC(N)=O)C(=O)N[C@@H](CC(C)C)C(=O)N[C@@H](CCCNC(=N)N)C(=O)N1CCC[C@H]1C(=O)N[C@H](C)C(N)=O` [Cetrorelix acetate] (Ac-[d2Nal][dPhe(4-Cl)][d3Pal]SY[dCit]LRP[dA]-NH2) as the compound, how does the “Frequency of emptying (n-times, mean)” value (study subjects [1]; [5]) read?
Its value is 2.29 n-times.

And the “Frequency of emptying (n-times, mean)” value (study subjects [1]; [6])?
The value was 1.86 n-times.

What about the “Frequency of emptying (n-times, mean)” value (study subjects [1]; [7]) of the same compound?
The value was 1.58 n-times.

And the “Frequency of emptying (n-times, mean)” value (study subjects [1]; [8])?
Its value is 1.55 n-times.

And the “Frequency of emptying (n-times, mean)” value (study subjects [1]; [9])?
The value was 1.45 n-times.

And the “Frequency of emptying (n-times, mean)” value (study subjects [1]; [10])?
Its value is 1.66 n-times.

What about the “Frequency of emptying (n-times, mean)” value (study subjects [1]; [11]) of the same compound?
Its value is 2.49 n-times.

What about the “Frequency of emptying (n-times, mean)” value (study subjects [1]; [12]) of the same compound?
The value was 2.23 n-times.

And the “Frequency of emptying (n-times, mean)” value (study subjects [1]; [13])?
Its value is 2.00 n-times.

And the “Frequency of emptying (n-times, mean)” value (study subjects [1]; [14])?
The value was 1.73 n-times.

What about the “Frequency of emptying (n-times, mean)” value (study subjects [1]; [15]) of the same compound?
The value was 1.52 n-times.

And the “Frequency of emptying (n-times, mean)” value (study subjects [1]; [16])?
Its value is 1.79 n-times.

What about the “Frequency of emptying (n-times, mean)” value (study subjects [1]; [17]) of the same compound?
Its value is 2.86 n-times.

And the “Frequency of emptying (n-times, mean)” value (study subjects [1]; [18])?
Its value is 1.62 n-times.

What about the “Frequency of emptying (n-times, mean)” value (study subjects [1]; [19]) of the same compound?
Its value is 1.66 n-times.

And the “Frequency of emptying (n-times, mean)” value (study subjects [1]; [20])?
Its value is 1.81 n-times.

What about the “Frequency of emptying (n-times, mean)” value (study subjects [1]; [21]) of the same compound?
Its value is 1.65 n-times.

What about the “Frequency of emptying (n-times, mean)” value (study subjects [1]; [22]) of the same compound?
Its value is 1.78 n-times.

What about the “decrease in frequency of emptying compared to placebo” value (study subjects [1]; [23]) of the same compound?
Its value is “up to 1.35”.

What about the “chemical (hormonal) castration” value ([2]; 5+5+5+5 mg, 10+10 mg and 10+10+10+10 mg schemes, conclusion from median testosterone blood levels) of the same compound?
Its value is “successfully prevented”.

What about the “Testosterone [ng/mL] (median)” value [2, 5] of the same compound?
The value was 3.27 ng/mL.

What about the “Testosterone [ng/mL] (median)” value [2, 6] of the same compound?
Its value is 4.41 ng/mL.

What about the “Testosterone [ng/mL] (median)” value [2, 7] of the same compound?
Its value is 3.73 ng/mL.

And the “Testosterone [ng/mL] (median)” value [2, 8]?
The value was 4.45 ng/mL.

And the “Testosterone [ng/mL] (median)” value [2, 9]?
Its value is 4.16 ng/mL.

And the “Testosterone [ng/mL] (median)” value [2, 10]?
Its value is 4.12 ng/mL.

What about the “Testosterone [ng/mL] (median)” value [2, 11] of the same compound?
Its value is 3.42 ng/mL.

And the “Testosterone [ng/mL] (median)” value [2, 12]?
Its value is 2.95 ng/mL.

What about the “Testosterone [ng/mL] (median)” value [2, 13] of the same compound?
The value was 3.77 ng/mL.

What about the “Testosterone [ng/mL] (median)” value [2, 14] of the same compound?
The value was 4.11 ng/mL.

What about the “Testosterone [ng/mL] (median)” value [2, 15] of the same compound?
Its value is 3.91 ng/mL.

And the “Testosterone [ng/mL] (median)” value [2, 16]?
The value was 3.49 ng/mL.

And the “Testosterone [ng/mL] (median)” value [2, 17]?
The value was 3.41 ng/mL.

What about the “Testosterone [ng/mL] (median)” value [2, 18] of the same compound?
Its value is 2.17 ng/mL.

And the “Testosterone [ng/mL] (median)” value [2, 19]?
The value was 3.82 ng/mL.

What about the “Testosterone [ng/mL] (median)” value [2, 20] of the same compound?
The value was 4.32 ng/mL.

And the “Testosterone [ng/mL] (median)” value [2, 21]?
Its value is 4.32 ng/mL.

And the “Testosterone [ng/mL] (median)” value [2, 22]?
The value was 4.06 ng/mL.

What about the “further decrease in IPSS irritative subscore compared to placebo” value (study subjects [3]; 5+5+5+5 mg, 10+10 mg and 10+10+10+10 mg schemes, largest difference) of the same compound?
The value was “up to 43%”.

What about the “IPSS irritative subscore (nocturia, frequency of emptying, urgency to urinate)” value (study subjects [3]; [5]) of the same compound?
Its value is 0%.

And the “IPSS irritative subscore (nocturia, frequency of emptying, urgency to urinate)” value (study subjects [3]; [6])?
The value was −25%.

And the “IPSS irritative subscore (nocturia, frequency of emptying, urgency to urinate)” value (study subjects [3]; [7])?
Its value is −33.3%.

And the “IPSS irritative subscore (nocturia, frequency of emptying, urgency to urinate)” value (study subjects [3]; [8])?
Its value is −33.3%.

And the “IPSS irritative subscore (nocturia, frequency of emptying, urgency to urinate)” value (study subjects [3]; [9])?
Its value is −42.9%.

What about the “IPSS irritative subscore (nocturia, frequency of emptying, urgency to urinate)” value (study subjects [3]; [10]) of the same compound?
Its value is −29.2%.

What about the “IPSS irritative subscore (nocturia, frequency of emptying, urgency to urinate)” value (study subjects [3]; [11]) of the same compound?
The value was 0%.

And the “IPSS irritative subscore (nocturia, frequency of emptying, urgency to urinate)” value (study subjects [3]; [12])?
The value was −16.7%.

What about the “IPSS irritative subscore (nocturia, frequency of emptying, urgency to urinate)” value (study subjects [3]; [13]) of the same compound?
Its value is −25%.

What about the “IPSS irritative subscore (nocturia, frequency of emptying, urgency to urinate)” value (study subjects [3]; [14]) of the same compound?
The value was −28.6%.

What about the “IPSS irritative subscore (nocturia, frequency of emptying, urgency to urinate)” value (study subjects [3]; [15]) of the same compound?
The value was −30.8%.

What about the “IPSS irritative subscore (nocturia, frequency of emptying, urgency to urinate)” value (study subjects [3]; [16]) of the same compound?
Its value is −29.7%.

What about the “IPSS irritative subscore (nocturia, frequency of emptying, urgency to urinate)” value (study subjects [3]; [17]) of the same compound?
The value was 0%.

And the “IPSS irritative subscore (nocturia, frequency of emptying, urgency to urinate)” value (study subjects [3]; [18])?
Its value is −29.3%.

And the “IPSS irritative subscore (nocturia, frequency of emptying, urgency to urinate)” value (study subjects [3]; [19])?
The value was −31%.

What about the “IPSS irritative subscore (nocturia, frequency of emptying, urgency to urinate)” value (study subjects [3]; [20]) of the same compound?
Its value is −25%.

What about the “IPSS irritative subscore (nocturia, frequency of emptying, urgency to urinate)” value (study subjects [3]; [21]) of the same compound?
Its value is −28.6%.

And the “IPSS irritative subscore (nocturia, frequency of emptying, urgency to urinate)” value (study subjects [3]; [22])?
The value was −25%.

What about the “Nocturia (n-times, mean)” value (study subjects [4]; [5]) of the same compound?
Its value is 2.69 n-times.

And the “Nocturia (n-times, mean)” value (study subjects [4]; [6])?
The value was 2.00 n-times.

What about the “Nocturia (n-times, mean)” value (study subjects [4]; [7]) of the same compound?
Its value is 2.06 n-times.

And the “Nocturia (n-times, mean)” value (study subjects [4]; [8])?
The value was 1.97 n-times.

What about the “Nocturia (n-times, mean)” value (study subjects [4]; [9]) of the same compound?
Its value is 1.97 n-times.

What about the “Nocturia (n-times, mean)” value (study subjects [4]; [10]) of the same compound?
The value was 2.16 n-times.

And the “Nocturia (n-times, mean)” value (study subjects [4]; [11])?
The value was 2.57 n-times.

What about the “Nocturia (n-times, mean)” value (study subjects [4]; [12]) of the same compound?
The value was 2.09 n-times.

What about the “Nocturia (n-times, mean)” value (study subjects [4]; [13]) of the same compound?
Its value is 1.94 n-times.

What about the “Nocturia (n-times, mean)” value (study subjects [4]; [14]) of the same compound?
The value was 1.85 n-times.

And the “Nocturia (n-times, mean)” value (study subjects [4]; [15])?
Its value is 1.79 n-times.

And the “Nocturia (n-times, mean)” value (study subjects [4]; [16])?
The value was 1.85 n-times.

What about the “Nocturia (n-times, mean)” value (study subjects [4]; [17]) of the same compound?
Its value is 2.63 n-times.

And the “Nocturia (n-times, mean)” value (study subjects [4]; [18])?
Its value is 1.79 n-times.

And the “Nocturia (n-times, mean)” value (study subjects [4]; [19])?
Its value is 1.78 n-times.

And the “Nocturia (n-times, mean)” value (study subjects [4]; [20])?
Its value is 1.75 n-times.

What about the “Nocturia (n-times, mean)” value (study subjects [4]; [21]) of the same compound?
The value was 1.87 n-times.

And the “Nocturia (n-times, mean)” value (study subjects [4]; [22])?
Its value is 2.16 n-times.

And the “decrease in nocturia frequency compared to placebo” value (study subjects [4]; [23])?
The value was “up to 0.71”.
